Measured values from patent publication US11186564B2, “Dual NAV1.2/5HT2a inhibitors for treating CNS disorders” (Sunovion Pharmaceuticals Inc., priority 2016, dated 2021).

What was measured:
[1] = molecular target: human sodium channel NaV1.2 (Homo sapiens, UniProt Q99250); experiment: NaV1.2 inhibition, automated patch-clamp (Q-Patch HTX), slow inactivated state (state C); assay type: cell-based; conditions: hNaV1.2 CHO cells, slow inactivated state; for inhibition at 1 µM: 1 μM compound, read-out: NaV1.2 (% inh), 1 μM; for inhibition at 10 µM: 10 μM compound, read-out: NaV1.2 (% inh), 10 μM; for IC50: read-out: NaV1.2 IC50
Chain of human sodium channel NaV1.2 (Q99250 whole entry): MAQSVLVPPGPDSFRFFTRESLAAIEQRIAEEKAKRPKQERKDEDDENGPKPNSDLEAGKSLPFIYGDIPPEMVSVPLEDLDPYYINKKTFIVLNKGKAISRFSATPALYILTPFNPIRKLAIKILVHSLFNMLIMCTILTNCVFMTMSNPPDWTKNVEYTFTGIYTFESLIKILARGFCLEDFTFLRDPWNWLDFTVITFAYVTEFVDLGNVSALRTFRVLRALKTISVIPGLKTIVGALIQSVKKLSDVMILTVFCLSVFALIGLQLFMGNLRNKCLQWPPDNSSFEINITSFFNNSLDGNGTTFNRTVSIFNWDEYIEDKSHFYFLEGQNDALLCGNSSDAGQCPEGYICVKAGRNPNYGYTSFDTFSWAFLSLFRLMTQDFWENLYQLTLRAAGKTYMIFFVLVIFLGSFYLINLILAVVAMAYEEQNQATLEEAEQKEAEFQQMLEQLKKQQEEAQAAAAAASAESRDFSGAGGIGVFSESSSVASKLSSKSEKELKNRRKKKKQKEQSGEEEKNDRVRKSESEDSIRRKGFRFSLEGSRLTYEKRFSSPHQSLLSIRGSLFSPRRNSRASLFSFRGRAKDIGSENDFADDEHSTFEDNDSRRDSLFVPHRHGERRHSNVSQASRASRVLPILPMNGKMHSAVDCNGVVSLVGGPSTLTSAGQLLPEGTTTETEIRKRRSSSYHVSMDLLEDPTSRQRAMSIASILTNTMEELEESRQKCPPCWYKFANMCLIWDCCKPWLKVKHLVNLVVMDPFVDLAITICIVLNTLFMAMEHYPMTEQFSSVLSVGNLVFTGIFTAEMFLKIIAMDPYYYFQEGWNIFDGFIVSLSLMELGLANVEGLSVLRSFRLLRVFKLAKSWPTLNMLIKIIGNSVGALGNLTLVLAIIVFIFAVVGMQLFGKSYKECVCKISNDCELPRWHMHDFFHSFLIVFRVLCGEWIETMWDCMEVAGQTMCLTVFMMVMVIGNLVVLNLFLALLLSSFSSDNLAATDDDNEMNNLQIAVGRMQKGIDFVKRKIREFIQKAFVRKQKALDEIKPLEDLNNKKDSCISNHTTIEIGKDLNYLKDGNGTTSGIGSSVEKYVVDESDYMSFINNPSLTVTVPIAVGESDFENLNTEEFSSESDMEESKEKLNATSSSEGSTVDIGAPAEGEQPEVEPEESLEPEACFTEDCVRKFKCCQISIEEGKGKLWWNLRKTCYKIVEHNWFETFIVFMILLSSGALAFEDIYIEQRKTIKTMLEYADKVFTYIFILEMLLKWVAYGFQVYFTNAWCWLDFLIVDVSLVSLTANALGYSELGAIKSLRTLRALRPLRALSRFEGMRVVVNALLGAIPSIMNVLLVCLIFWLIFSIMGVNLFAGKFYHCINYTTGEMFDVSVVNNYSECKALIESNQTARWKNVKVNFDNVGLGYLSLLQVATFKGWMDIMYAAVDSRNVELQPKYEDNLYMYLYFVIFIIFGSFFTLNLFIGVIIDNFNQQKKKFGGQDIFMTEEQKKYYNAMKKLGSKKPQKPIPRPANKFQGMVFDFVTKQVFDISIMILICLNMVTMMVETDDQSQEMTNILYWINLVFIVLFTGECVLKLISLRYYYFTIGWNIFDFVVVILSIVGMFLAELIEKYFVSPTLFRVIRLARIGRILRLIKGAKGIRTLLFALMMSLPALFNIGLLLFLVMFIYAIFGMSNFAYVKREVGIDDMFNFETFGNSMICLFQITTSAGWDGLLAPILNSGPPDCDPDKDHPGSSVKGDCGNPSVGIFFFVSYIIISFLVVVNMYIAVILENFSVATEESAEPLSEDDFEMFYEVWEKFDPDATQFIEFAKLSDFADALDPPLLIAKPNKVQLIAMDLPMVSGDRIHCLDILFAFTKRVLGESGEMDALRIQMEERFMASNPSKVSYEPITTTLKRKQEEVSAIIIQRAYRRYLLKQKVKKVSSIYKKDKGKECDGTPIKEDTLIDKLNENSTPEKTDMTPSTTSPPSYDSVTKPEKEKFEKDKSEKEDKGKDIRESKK
How it was run: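 CHO K-1 cells stably expressing human NaV1.2, whole-cell automated patch clamp, holding −100 mV; slow-inactivated state (state C) read at a 5 ms step to 0 mV after 10 s at −50 mV and 15 ms at −90 mV. Percent inhibition vs vehicle; IC50 by nonlinear least-squares fit.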

[2] = molecular target: T1, recombinant human serotonin receptor 5-HT2A (Homo sapiens, UniProt P28223); experiment: 5-HT2A antagonist Ca2+ assay in CHO-K1 cells (method A aequorin luminescence / method B FLIPR fluorescence); assay type: cell-based; conditions: antagonist mode vs EC80 of reference agonist, method A or B, read-out: 5HT2A IC50
T1 construct: expressed in transfected cells; method B: loaded with Ca2+ dye
T1 sequence (P28223 whole entry): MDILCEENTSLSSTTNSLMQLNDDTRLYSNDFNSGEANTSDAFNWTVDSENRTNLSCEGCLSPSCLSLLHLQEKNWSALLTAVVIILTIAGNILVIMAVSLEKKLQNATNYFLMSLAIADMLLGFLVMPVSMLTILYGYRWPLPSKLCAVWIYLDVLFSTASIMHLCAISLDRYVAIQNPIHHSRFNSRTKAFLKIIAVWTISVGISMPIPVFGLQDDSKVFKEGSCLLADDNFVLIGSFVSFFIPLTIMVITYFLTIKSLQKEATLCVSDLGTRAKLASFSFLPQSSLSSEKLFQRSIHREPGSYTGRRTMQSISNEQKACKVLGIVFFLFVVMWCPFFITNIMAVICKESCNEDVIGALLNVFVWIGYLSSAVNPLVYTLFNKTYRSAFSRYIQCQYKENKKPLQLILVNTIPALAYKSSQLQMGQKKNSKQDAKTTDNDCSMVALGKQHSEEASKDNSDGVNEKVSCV
How it was run: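 Method A: CHO-K1 cells co-expressing human 5-HT2A and mitochondrial apoaequorin were given reference agonist at EC80 15 min after compound, with luminescence read. Method B: dye-loaded 5-HT2A CHO-K1 cells were pretreated with compound, then given serotonin at EC80, with FLIPR fluorescence read. IC50s came from nonlinear fits of percent inhibition.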

inhibition at 1 µM [1] [%] | inhibition at 10 µM [1] [%] | SMILES | IC50 [2] [nM] | IC50 [1] [nM]
– | 52 | O[C@@H](CCN1CCC(Oc2ccccc2)CC1)c1ccccc1 [Example 228, (S)-3-(4-phenoxypiperidin-1-yl)-1-phenylpropan-1-ol] | 140 | –
– | 21 | OC(COC1CCCCC1)CN1CCN(Cc2ccccc2)CC1 (stereo not shown) [Example 75, 1-(4-benzylpiperazin-1-yl)-3-(cyclohexyloxy)propan-2-ol] | > 4200 | –
– | – | Fc1ccc(OC2COCCN(CC3CCc4ccccc43)C2)cc1 (stereo not shown) [Example 276, 4-((2,3-dihydro-1H-inden-1-yl)methyl)-6-(4-fluorophenoxy)-1,4-oxazepane] | 400 | 440
– | 52 | NCCOc1ccc2c(c1)C(CN1CCC(Oc3ccc(F)cc3)CC1)CC2 (stereo not shown) [Example 114, 2-((3-((4-(4-fluorophenoxy)piperidin-1-yl)methyl)-2,3-dihydro-1H-inden-5-yl)oxy)ethan-1-amine] | 70 | –
– | – | O[C@@H](COC1CCCCC1)CN1CC2(CC(c3ccccc3)CO2)C1 (stereo partly drawn) [Example 361, (2R)-1-(cyclohexyloxy)-3-(7-phenyl-5-oxa-2-azaspiro[3.4]octan-2-yl)propan-2-ol] | 20 | 2710
1 | – | OC1(CN2CC[C@@H](Oc3ccc(F)cc3)C2)COCc2ccccc21 (stereo partly drawn) [Example 9, 4-(((R)-3-(4-fluorophenoxy)pyrrolidin-1-yl)methyl)isochroman-4-ol] | 600 | –
– | – | Fc1ccc(OC2COC3(C2)CN(CC2CCc4ccccc42)C3)cc1 (stereo not shown) [Example 368, 2-((2,3-dihydro-1H-inden-1-yl)methyl)-7-(4-fluorophenoxy)-5-oxa-2-azaspiro[3.4]octane] | 150 | 380
– | – | CO[C@H](CCN1CCC(Oc2ccccc2)CC1)c1ccccc1 [Example 229, (R)-1-(3-methoxy-3-phenylpropyl)-4-phenoxypiperidine] | 30 | 1080
10 | – | Fc1ccc(OC2CCN(CCC3CCCOC3)CC2)cc1 (stereo not shown) [Example 169, 4-(4-fluorophenoxy)-1-(2-(tetrahydro-2H-pyran-3-yl)ethyl)piperidine] | 280 | –
37 | – | c1ccc2c(c1)CC1(CCN(CC3CCc4ccccc43)CC1)CO2 (stereo not shown) [Example 442, 1′-((2,3-dihydro-1H-inden-1-yl)methyl)spiro[chromane-3,4′-piperidine]] | 590 | –
– | – | COc1ccccc1O[C@H]1CCN(CC2Cc3ccccc3C2)[C@H](C)C1 [Example 141, (2R,4S)-1-((2,3-dihydro-1H-inden-2-yl)methyl)-4-(2-methoxyphenoxy)-2-methylpiperidine] | 200 | 1010
– | – | COc1ccccc1O[C@@H]1CCN(CC2Cc3ccccc3C2)[C@H](C)C1 [Example 140, (2R,4R)-1-((2,3-dihydro-1H-inden-2-yl)methyl)-4-(2-methoxyphenoxy)-2-methylpiperidine] | 630 | 510
– | – | Fc1ccc(OC2CCN(CCC3Cc4ccccc4C3)CC2)cc1 [Example 178, 1-(2-(2,3-dihydro-1H-inden-2-yl)ethyl)-4-(4-fluorophenoxy)piperidine] | 30 | 1900
– | – | Fc1ccc(OC2CCN(CCC3CCc4ccccc43)CC2)cc1 (stereo not shown) [Example 171, 1-(2-(2,3-dihydro-1H-inden-1-yl)ethyl)-4-(4-fluorophenoxy)piperidine] | 60 | 40
41 | – | C[C@@H]1C[C@@]2(CCc3ccccc3O2)CCN1CCN1CCc2ccccc2C1=O [Example 426, 2-(2-((2R,2′R)-2′-methylspiro[chromane-2,4′-piperidin]-1′-yl)ethyl)-3,4-dihydroisoquinolin-1(2H)-one] | 160 | –

SMILES | inhibition at 1 µM [1] [%] | inhibition at 10 µM [1] [%] | IC50 [2] [nM] | IC50 [1] [nM]
O=C1c2ccccc2CCN1CCN1C[C@H]2CC[C@@H](C1)N2c1ccccc1 [Example 297, 2-(2-((1R,5S)-8-phenyl-3,8-diazabicyclo[3.2.1]octan-3-yl)ethyl)-3,4-dihydroisoquinolin-1(2H)-one] | -4 | – | > 16700 | –
CO[C@@H](CCN1CCC(Oc2ccccc2)CC1)c1ccccc1 [Example 230, (S)-1-(3-methoxy-3-phenylpropyl)-4-phenoxypiperidine] | – | 87 | 390 | –
